According to article PMC7044277 (Nature Communications, 2020):
“And” between values parts separate entries of the source, which are not always exact repeats. Equal entries are not always repeated.

How the values were obtained:
DRD2 (D2 long receptor) = DRD2 (D2 long receptor) (Homo sapiens, UniProt P14416); assay: β-arrestin2 recruitment (Tango), HTLA cells; format: cell-based; details: for response, Fig_S11e dose-response source data: replicate values; for Response, Fig_S11c dose-response: individual replicates
DRD2 (D2 long receptor), sequence (P14416 whole entry): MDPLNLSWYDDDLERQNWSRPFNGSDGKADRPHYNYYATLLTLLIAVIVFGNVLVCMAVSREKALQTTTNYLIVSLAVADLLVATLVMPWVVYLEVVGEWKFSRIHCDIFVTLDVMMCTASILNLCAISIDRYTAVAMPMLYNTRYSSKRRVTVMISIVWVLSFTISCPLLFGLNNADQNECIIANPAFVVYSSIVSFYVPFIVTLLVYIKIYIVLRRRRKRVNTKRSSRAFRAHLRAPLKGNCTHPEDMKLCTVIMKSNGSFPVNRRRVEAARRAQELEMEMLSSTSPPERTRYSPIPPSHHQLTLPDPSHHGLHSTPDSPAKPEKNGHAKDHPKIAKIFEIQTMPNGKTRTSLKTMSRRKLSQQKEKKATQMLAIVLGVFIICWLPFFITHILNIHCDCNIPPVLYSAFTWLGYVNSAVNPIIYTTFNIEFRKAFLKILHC

DRD3 = DRD3 (Homo sapiens, UniProt P35462); assay: β-arrestin2 recruitment (Tango); format: cell-based; details: DRD3, Tango
DRD3, sequence (P35462 whole entry): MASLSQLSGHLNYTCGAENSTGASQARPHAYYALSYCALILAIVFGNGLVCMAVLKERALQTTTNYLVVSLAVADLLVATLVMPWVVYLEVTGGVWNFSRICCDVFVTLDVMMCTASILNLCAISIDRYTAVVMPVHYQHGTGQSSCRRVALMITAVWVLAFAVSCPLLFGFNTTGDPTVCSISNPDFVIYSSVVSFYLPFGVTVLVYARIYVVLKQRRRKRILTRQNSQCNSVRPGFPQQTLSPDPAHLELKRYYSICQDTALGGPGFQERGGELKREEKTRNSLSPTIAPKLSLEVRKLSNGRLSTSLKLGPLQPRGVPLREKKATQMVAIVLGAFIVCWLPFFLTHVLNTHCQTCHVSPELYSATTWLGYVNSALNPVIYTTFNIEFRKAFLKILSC

For `CCOc1cccc2cc(C(C)NCC3(O)CCCCC3)oc12` (centres unmarked) [O4LE6], the “response, Fig_S11e dose-response source data” value (DRD2 (D2 long receptor); Log[Drug] -8.52) was 4.375 and 3.995 and 5.741 and 6.567 and 6.611 and 6.201 and 5.912 and 5.884 and 4.408, the “response, Fig_S11e dose-response source data” value (DRD2 (D2 long receptor); Log[Drug] -9) was 3.657 and 3.173 and 3.675 and 2.9749 and 3.073 and 3.47 and 2.665 and 3.951 and 5.063 and the “response, Fig_S11e dose-response source data” value (DRD2 (D2 long receptor); Log[Drug] -9.52) was 2.783 and 2.8126 and 2.809 and 2.846 and 2.583 and 2.72 and 1.765 and 1.2028 and 2.471. The “response, Fig_S11e dose-response source data” value (DRD2 (D2 long receptor); Log[Drug] -10) was 3.027 and 2.494 and 2.707 and 2.723 and 2.793 and 2.57 and 1.765 and 1.586 and 1.567, the “response, Fig_S11e dose-response source data” value (DRD2 (D2 long receptor); Log[Drug] -10.52) was 2.869 and 2.577 and 2.7076 and 2.741 and 2.285 and 2.767 and 1.576 and 1.95 and 2.499 and the “response, Fig_S11e dose-response source data” value (DRD2 (D2 long receptor); Log[Drug] -11) was 2.286 and 2.31 and 2.497 and 2.358 and 2.303 and 2.397 and 3.984 and 1.567 and 2.499. The “response, Fig_S11e dose-response source data” value (DRD2 (D2 long receptor); Log[Drug] -11.52) was 2.417 and 3.403 and 2.6551 and 2.344 and 2.523 and 2.357 and 1.752 and 2.8723 and 2.669, the “response, Fig_S11e dose-response source data” value (DRD2 (D2 long receptor); Log[Drug] -12) was 2.236 and 2.366 and 2.369 and 2.676 and 2.167 and 2.127 and 2.148 and 1.023 and 3.799 and the Emax (DRD2 (D2 long receptor); HTLA, read-out: Emax relative to quinpirole response, DRD2, Tango) was 105%. The “β-arrestin2 recruitment response at DRD2 (source data, replicate values)” value (shortened to “β-arrestin2 recruitment response at DRD2”) (DRD2 (D2 long receptor); Log[Drug] -6.52) was 78.7922, the “Response, Fig_S11c dose-response” value (DRD2 (D2 long receptor); Log[Drug] -6.52) was 78.7922 and the “β-arrestin2 recruitment response at DRD2” value (DRD2 (D2 long receptor); Log[Drug] -7) was 72.0078 and 74.6368 and 66.9645 and 59.2359 and 63.6719 and 58.7266 and 59.326 and 73.941 and 65.8379. For the same compound, the “Response, Fig_S11c dose-response” value (DRD2 (D2 long receptor); Log[Drug] -7) was 72.0078 and 74.6368 and 66.9645 and 59.2359 and 63.6719 and 58.7266 and 59.326 and 73.941 and 65.8379, the “β-arrestin2 recruitment response at DRD2” value (DRD2 (D2 long receptor); Log[Drug] -7.52) was 37.8418 and 44.9592 and 58.6118 and 43.0054 and 55.0074 and 48.586 and 48.419 and 72.5528 and 64.0624 and the “Response, Fig_S11c dose-response” value (DRD2 (D2 long receptor); Log[Drug] -7.52) was 37.8418 and 44.9592 and 58.6118 and 43.0054 and 55.0074 and 48.586 and 48.419 and 72.5528 and 64.0624. The “β-arrestin2 recruitment response at DRD2” value (DRD2 (D2 long receptor); Log[Drug] -8) was 15.3268 and 15.1148 and 16.7449 and 27.4037 and 26.6311 and 23.8074 and 19.9269 and 24.9446 and 21.2413, the “Response, Fig_S11c dose-response” value (DRD2 (D2 long receptor); Log[Drug] -8) was 15.3268 and 15.1148 and 16.7449 and 27.4037 and 26.6311 and 23.8074 and 19.9269 and 24.9446 and 21.2413 and the “β-arrestin2 recruitment response at DRD2” value (DRD2 (D2 long receptor); Log[Drug] -8.52) was 4.375 and 3.995 and 5.741 and 6.567 and 6.611 and 6.201 and 5.912 and 5.884 and 4.408. For the same compound, the “Response, Fig_S11c dose-response” value (DRD2 (D2 long receptor); Log[Drug] -8.52) was 4.375 and 3.995 and 5.741 and 6.567 and 6.611 and 6.201 and 5.912 and 5.884 and 4.408, the “β-arrestin2 recruitment response at DRD2” value (DRD2 (D2 long receptor); Log[Drug] -9) was 3.657 and 3.173 and 3.675 and 2.9749 and 3.073 and 3.47 and 2.665 and 3.951 and 5.063 and the “Response, Fig_S11c dose-response” value (DRD2 (D2 long receptor); Log[Drug] -9) was 3.657 and 3.173 and 3.675 and 2.9749 and 3.073 and 3.47 and 2.665 and 3.951 and 5.063. For the same compound, the “β-arrestin2 recruitment response at DRD2” value (DRD2 (D2 long receptor); Log[Drug] -9.52) was 2.783 and 2.8126 and 2.809 and 2.846 and 2.583 and 2.72 and 1.765 and 1.2028 and 2.471, the “Response, Fig_S11c dose-response” value (DRD2 (D2 long receptor); Log[Drug] -9.52) was 2.783 and 2.8126 and 2.809 and 2.846 and 2.583 and 2.72 and 1.765 and 1.2028 and 2.471 and the “β-arrestin2 recruitment response at DRD2” value (DRD2 (D2 long receptor); Log[Drug] -10) was 3.027 and 2.494 and 2.707 and 2.723 and 2.793 and 2.57 and 1.765 and 1.586 and 1.567. For the same compound, the “Response, Fig_S11c dose-response” value (DRD2 (D2 long receptor); Log[Drug] -10) was 3.027 and 2.494 and 2.707 and 2.723 and 2.793 and 2.57 and 1.765 and 1.586 and 1.567, the “β-arrestin2 recruitment response at DRD2” value (DRD2 (D2 long receptor); Log[Drug] -10.52) was 2.869 and 2.577 and 2.7076 and 2.741 and 2.285 and 2.767 and 1.576 and 1.95 and 2.499 and the “Response, Fig_S11c dose-response” value (DRD2 (D2 long receptor); Log[Drug] -10.52) was 2.869 and 2.577 and 2.7076 and 2.741 and 2.285 and 2.767 and 1.576 and 1.95 and 2.499. The “β-arrestin2 recruitment response at DRD2” value (DRD2 (D2 long receptor); Log[Drug] -11) was 2.286 and 2.31 and 2.497 and 2.358 and 2.303 and 2.397 and 3.984 and 1.567 and 2.499, the “Response, Fig_S11c dose-response” value (DRD2 (D2 long receptor); Log[Drug] -11) was 2.286 and 2.31 and 2.497 and 2.358 and 2.303 and 2.397 and 3.984 and 1.567 and 2.499 and the “β-arrestin2 recruitment response at DRD2” value (DRD2 (D2 long receptor); Log[Drug] -11.52) was 2.417 and 3.403 and 2.6551 and 2.344 and 2.523 and 2.357 and 1.752 and 2.8723 and 2.669. For the same compound, the “Response, Fig_S11c dose-response” value (DRD2 (D2 long receptor); Log[Drug] -11.52) was 2.417 and 3.403 and 2.6551 and 2.344 and 2.523 and 2.357 and 1.752 and 2.8723 and 2.669, the “β-arrestin2 recruitment response at DRD2” value (DRD2 (D2 long receptor); Log[Drug] -12) was 2.236 and 2.366 and 2.369 and 2.676 and 2.167 and 2.127 and 2.148 and 1.023 and 3.799 and the “Response, Fig_S11c dose-response” value (DRD2 (D2 long receptor); Log[Drug] -12) was 2.236 and 2.366 and 2.369 and 2.676 and 2.167 and 2.127 and 2.148 and 1.023 and 3.799. The EC50 (DRD3; read-out: EC50 ± SEM) was 708.5 ± 6.3 nM and the Emax (DRD3; read-out: Emax relative to quinpirole response) was 15.8%.
